Results taken from PubChem BioAssay AID1628 (Sanford-Burnham Center for Chemical Genomics, 2009).
“And” between values parts separate entries of the source, which are not always exact repeats. Equal entries are not always repeated.

Tested on: MIN6 insulin promoter GFP reporter, high-content imaging
Experiment: insulin promoter down-regulators in MIN6 cells, imaging, high-content screening, mouse beta cells (AID 1628);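 also: potency for lowering insulin promoter GFP signal so compounds are inhibitors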

`CN(C)c1ccnc2c[cH-]cc12.[Fe].c1ccc(-[c-]2[c-](-c3ccccc3)[c-](-c3ccccc3)[c-](-c3ccccc3)[c-]2-c2ccccc2)cc1` (stereo unspecified) was tested, and the IC50 was 2630 nM and 1620 nM.
